pIC50: −log10 of the molar value.
What follows are molecules tested against T1, PPARγ (Homo sapiens, UniProt P37231) (assay: PPARγ ligand binding assay utilizing [3H]-BRL 49653 as the radioligand (filtration)). Details: concentration required to reduce by 50% the specific binding of [3H]-BRL 49653.
T1 construct: made in house
T1 sequence (P37231 1-505): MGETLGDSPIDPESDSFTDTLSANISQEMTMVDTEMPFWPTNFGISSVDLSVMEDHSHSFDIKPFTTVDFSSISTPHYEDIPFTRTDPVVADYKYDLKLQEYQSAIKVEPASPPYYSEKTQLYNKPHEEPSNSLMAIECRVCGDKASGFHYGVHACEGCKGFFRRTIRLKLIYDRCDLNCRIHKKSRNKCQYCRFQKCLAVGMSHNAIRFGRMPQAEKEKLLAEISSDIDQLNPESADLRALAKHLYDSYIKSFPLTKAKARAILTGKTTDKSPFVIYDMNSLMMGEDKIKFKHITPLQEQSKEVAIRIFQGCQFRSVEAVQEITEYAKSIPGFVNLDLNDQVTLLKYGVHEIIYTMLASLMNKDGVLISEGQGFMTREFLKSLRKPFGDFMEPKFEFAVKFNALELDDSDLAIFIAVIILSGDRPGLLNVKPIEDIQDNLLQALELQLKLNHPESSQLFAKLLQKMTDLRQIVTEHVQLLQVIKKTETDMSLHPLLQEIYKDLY
Summary of the method: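 Displacement of 10 nM [3H]-BRL 49653 from PPARγ-GST fusion protein in Tris-HCl pH 8.0 buffer with KCl, DTT, BSA and NP-40, 15 min incubation, then glutathione-bead capture for 1 h. Bound radioactivity counted after filtration washes; IC50 is concentration giving 50% loss of specific binding, reported in ranges.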

Row | SMILES | pIC50
1 | CCCCc1nc(NS(=O)(=O)c2ccc(C(F)(F)F)cc2Cl)ccc1Sc1ccc(S(=O)(=O)N2CCOCC2)cc1 [Compound 125, N-{6-Butyl-5-[4-(morpholine-4-sulfonyl)-phenylsulfanyl]-pyridin-2-yl}-2-chloro-4-trifluoromethyl-benzenesulfonamide] | > 6.00
2 | CCCCCOC(=O)c1cc(NS(=O)(=O)c2ccc(Cl)cc2Cl)ncc1Sc1ccc(S(=O)(=O)N2CCCCC2)cc1 [Compound 126, 2-(2,4-Dichloro-benzenesulfonylamino)-5-[4-(piperidine-1-sulfonyl)-phenylsulfanyl]-isonicotinic acid pentyl ester] | > 6.00
3 | O=C(c1cc(NS(=O)(=O)c2ccc(Cl)cc2Cl)ncc1Sc1ccc(S(=O)(=O)N2CCCCC2)cc1)C1CC1 [Compound 128, 2,4-dichloro-N-{4-cyclopropanecarbonyl-5-[4-(piperidine-1-sulfonyl)-phenylsulfanyl]-pyridin-2-yl}-benzenesulfonamide] | > 6.00
4 | O=C(c1cc(NS(=O)(=O)c2ccc(C(F)(F)F)cc2Cl)ncc1Sc1ccc(S(=O)(=O)N2CCOCC2)cc1)C1CC1 [Compound 129, 2-Chloro-N-{4-cyclopropanecarbonyl-5-[4-(morpholine-4-sulfonyl)-phenylsulfanyl]-pyridin-2-yl}-4-trifluoromethyl-benzenesulfonamide] | > 6.00
5 | CCCCc1cc(NS(=O)(=O)c2ccc(C(F)(F)F)cc2Cl)nnc1Sc1ccc(S(=O)(=O)N2CCOCC2)cc1 [Compound 130, 3-(2′-chloro-4′-trifluoromethyl)phenylsulfonylamino-5-n-butyl-6-(4″-N-morpholinesulfonyl)phenylthiopyridazine] | > 6.00
6 | CCCCc1cc(NS(=O)(=O)c2ccc(Cl)cc2Cl)nnc1Sc1ccc(S(=O)(=O)N2CCOCC2)cc1 [Compound 131, 3-(2′,4′-dichloro)phenylsulfonylamino-5-n-butyl-6-(4″-N-morpholinesulfonyl)phenylthiopyridazine] | > 6.00
7 | CCCCc1cc(NS(=O)(=O)c2ccc(Cl)cc2Cl)nnc1Sc1ccc(S(=O)(=O)N2CCCCC2)cc1 [Compound 132, 3-(2′,4′-dichloro)phenylsulfonylamino-5-n-butyl-6-(4″-N-piperidinesulfonyl)phenylthiopyridazine] | > 6.00
8 | CCCCc1cc(NS(=O)(=O)c2ccc(Cl)cc2Cl)nnc1Sc1ccc(S(=O)(=O)C2CCCC2)cc1 [Compound 133, 3-(2′,4′-dichloro)phenylsulfonylamino-5-n-butyl-6-(4″-cyclopentanesulfonyl)phenylthiopyridazine] | > 6.00
9 | CCCCc1cc(NS(=O)(=O)c2ccc(C(F)(F)F)cc2Cl)nnc1Sc1ccc(S(=O)(=O)C2CCCC2)cc1 [Compound 134, 3-(2′-chloro-4′-trifluoromethyl)phenylsulfonylamino-5-n-butyl-6-(4″-cyclopentanesulfonyl)phenylthiopyridazine] | > 6.00
10 | CC(C)c1cc(NS(=O)(=O)c2ccc(C(F)(F)F)cc2Cl)nnc1Sc1ccc(S(=O)(=O)N2CCOCC2)cc1 [Compound 135, 3-(2′-chloro-4′-trifluoromethyl)phenylsulfonylamino-5-iso-propyl-6-(4″-N-morpholinesulfonyl)phenylthiopyridazine] | > 5.00
11 | Cc1cc(NS(=O)(=O)c2ccc(C(F)(F)F)cc2Cl)nnc1Sc1ccc(S(=O)(=O)N2CCCCC2)cc1 [Compound 136, 2-Chloro-N-{5-methyl-6-[4-(piperidine-1-sulfonyl) -phenylsulfanyl]-pyridazin-3-yl}-4-trifluoromethyl-benzenesulfonamide] | > 6.00
12 | Cc1cc(Sc2ccc(S(=O)(=O)N3CCCCC3)cc2)nnc1NS(=O)(=O)c1ccc(C(F)(F)F)cc1Cl [Compound 137, 2-Chloro-N-{4-methyl-6-[4-(piperidine-1-sulfonyl) -phenylsulfanyl]-pyridazin-3-yl}-4-trifluoromethyl-benzenesulfonamide] | > 5.00
13 | Cc1cc(S(=O)(=O)Nc2cc(C)c(Sc3ccc(S(=O)(=O)N4CCCCC4)cc3)nn2)c(Cl)cc1Cl [Compound 138, 2,4-Dichloro-5-methyl-N-{5-methyl-6-[4-(piperidine-1-sulfonyl)-phenylsulfanyl]-pyridazin-3-yl}-benzenesulfonamide] | > 6.00
14 | Cc1cc(S(=O)(=O)Nc2nnc(Sc3ccc(S(=O)(=O)N4CCCCC4)cc3)cc2C)c(Cl)cc1Cl [Compound 139, 2,4-Dichloro-5-methyl-N -{4-methyl-6-[4-(piperidine-1-sulfonyl)-phenylsulfanyl]-pyridazin-3-yl}-benzenesulfonamide] | > 6.00
15 | Cc1cc(S(=O)(=O)Nc2ccc(Sc3ccc(S(=O)(=O)N4CCCCC4)cc3)nn2)c(Cl)cc1Cl [Compound 140, 2,4-Dichloro-5-methyl-N-{6-[4-(piperidine-1-sulfonyl) -phenylsulfanyl]-pyridazin-3-yl}-benzenesulfonamide] | > 6.00

From patent publication US7893077B2, “Bisaryl-sulfonamides” (Amgen Inc., priority 2004, dated 2011)
